Results from patent US20200231562A1, “NOVEL MACROLIDE ANTIBIOTICS” (HELMHOLTZ-ZENTRUM FÜR INFEKTIONSFORSCHUNG GMBH, priority 2014, published 2020).

How the values were obtained:
[1] = tested on: Bacillus subtilis ATCC 6633; assay: Agar diffusion assay; type: cell-based; settings: ATCC6633, 50 μL of 0.5 mg in 1 mL methanol per 7 mm hole, n.a. = no activity observed, read-out: diameter of inhibition zone
Experimental: (§1) Antimicrobial activities of the gulmirecins were determined in a primary screen against Bacillus subtilis ATCC 6633, Staphylococcus aureus SG511, Staphylococcus auricularis DSM 20609, Mycobacterium vaccae IMET 10670, Pseudomonas aeruginosa K799/61, Escherichia coli SG458, Sporobolomyces salmonicolor SBUG 549, Candida albicans ATCC14053 and Penicillium notatum JP 36. To this end, holes with 7 mm diameter were aseptically punched in the respective agar medium. Subsequently, the agar plates were inoculated with the test organisms. 0.5 mg of every test compound was dissolved in 1 mL of methanol, and 50 μL of this solution was transferred to a single hole. Ciprofloxacin and amphotericin B served as positive controls. After evaporation of the solvent, the agar plates were incubated depending on the growth conditions of the test organisms. […] The test results are shown in Table 6 below, wherein the given values represent the diameters of the respective inhibition zone in the agar diffusion assay.

[2] = tested on: Mycobacterium vaccae IMET 10670; assay: Agar diffusion assay; type: cell-based; settings: Mycolicibacterium vaccae, IMET10670; 50 μL of 0.5 mg in 1 mL methanol per 7 mm hole; n.a. = no activity observed; read-out: diameter of inhibition zone
Experimental: as §1

C/C=C(/C)[C@H]1C/C=C(\C)[C@@H](O[C@H]2O[C@H](CO)[C@@H](O)[C@@H]2O)[C@H](OC(=O)CC(C)C)C(=O)C[C@@H](O)[C@H](C)C(=O)O1 [Compound 3, gulmirecin A]
zone of inhibition at 25 µg/hole [1]: 35 mm
zone of inhibition at 25 µg/hole [2]: 17 mm
